Assay results reported in patent US20250388575A1, “HETEROBIFUNCTIONAL COMPOUNDS AND METHODS OF TREATING DISEASE” (Halda Therapeutics OpCo, Inc., priority 2022, published 2025).
Where two headings read alike, the source gives them in different places.

Columns and labels:
[1] = biological target: BRD4-BD1 (Homo sapiens (Human), UniProt O60885); test: bromoKdELECT assay for binding affinity to BRD4-BD1; settings: 11-point 3-fold dilution
Method: (§1) Compounds were tested using a bromoKdELECT assay. T7 phage strains displaying bromodomains were grown in parallel in 24-well blocks in an E. coli host derived from the BL21 strain. E. coli were grown to log-phase and infected with T7 phage from a frozen stock (multiplicity of infection=0.4) and incubated with shaking at 32° C. until lysis (90-150 minutes). The lysates were centrifuged (5,000×g) and filtered (0.2 μm) to remove cell debris. Streptavidin-coated magnetic beads were treated with biotinylated small molecule or acetylated peptide ligands for 30 minutes at room temperature to generate affinity resins for bromodomain assays. The liganded beads were blocked with excess biotin and washed with blocking buffer (SeaBlock (Pierce), 1% BSA, 0.05% Tween 20, 1 mM DTT) to remove unbound ligand and to reduce nonspecific phage binding. Binding reactions were assembled by combining bromodomains, liganded affinity beads, and test compounds in 1× binding buffer (17% SeaBlock, 0.33×PBS, 0.04% Tween 20, 0.02% BSA, 0.004% Sodium azide, 7.4 mM DTT). Test compounds were prepared as 1000× stocks in 100% DMSO. Kds were determined using an 11-point 3-fold compound dilution series with one DMSO control point. All compounds for Kd measurements are distributed by acoustic transfer (non-contact dispensing) in 100% DMSO. The compounds were then diluted directly into the assays such that the final concentration of DMSO was 0.09%. All reactions performed in polypropylene 384-well plates. Each was a final volume of 0.02 ml. The assay plates were incubated at room temperature with shaking for 1 hour and the affinity beads were washed with wash buffer (1×PBS, 0.05% Tween 20). The beads were then resuspended in elution buffer (1×PBS, 0.05% Tween 20, 2 μM non-biotinylated affinity ligand) and incubated at room temperature with shaking for 30 minutes. The bromodomain concentration in the eluates was measured by qPCR.

[2] = biological target: BRD4-BD2 (Homo sapiens (Human), UniProt O60885); test: bromoKdELECT assay for binding affinity to BRD4-BD2; settings: 11-point 3-fold dilution
Method: as §1

[3] = test system: T-Rex 293 cell line SC3 cells having increased expression of androgen receptor protein; test: Cellular growth inhibition, T-Rex 293 SC3 cells with increased androgen receptor expression (doxycycline), CellTiter-Glo; format: cell-based; settings: T-Rex 293 SC3 cells with increased androgen receptor expression (exposed to 10 ng/mL doxycycline), 72 hours, CellTiter-Glo; read-out: GI50
Method in brief: (§2)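 SC3, a T-Rex 293 clone with doxycycline-inducible wild-type androgen receptor, was seeded in phenol red-free DMEM with 10% charcoal-dextran FBS, with or without 10 ng/mL doxycycline. Compound added at 24 h (0.5% DMSO) for 72 h at 37° C. CellTiter-Glo 2.0 luminescence; GI50 from four-parameter fit.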

[4] = test system: T-Rex 293 cell line SC3 cells lacking increased expression of androgen receptor protein; test: Cellular growth inhibition, T-Rex 293 SC3 cells lacking increased androgen receptor expression (no doxycycline), CellTiter-Glo; format: cell-based; settings: T-Rex 293 SC3 cells lacking increased androgen receptor expression (not exposed to doxycycline), 72 hours, CellTiter-Glo; read-out: GI50
Method in brief: as §2

[5] = test system: VCaP cells; test: Cellular growth inhibition assay for VCaP cells, CellTiter-Glo; format: cell-based, human; settings: VCaP cells, 72 hours, CellTiter-Glo, read-out: GI50
Method in brief: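 GI50 values come from four-parameter curve fits of luminescence data normalized to a zero baseline. Compound, in medium with 0.5% DMSO, was added one day after plating and left for 72 h before CellTiter-Glo 2.0 addition.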

[6] = test system: T47D cells; test: Cellular growth inhibition assay for T47D cells, CellTiter-Glo; format: cell-based, human; settings: 72 hours treatment, CellTiter-Glo 2.0
Method in brief: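 Cells are plated at 3000/well and allowed 24 h before treatment. Test compound in medium containing 0.5% DMSO is then added, with DMSO-only wells as negative control, and plates are incubated 72 h at 37 °C. ATP luminescence (CellTiter-Glo 2.0) is then fitted to four parameters to derive GI50.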

SMILES	Kd [1]	Kd [2]	GI50 ([5]; Homo sapiens)	GI50 [5]	GI50 [6]	GI50 ([6]; Homo sapiens)	GI50 [3]	GI50 [4]
CCS(=O)(=O)c1ccc(Oc2ccc(CCC3CCN(c4ccc(C(=O)N[C@H]5CC[C@H](Oc6ccc(C#N)c(Cl)c6)CC5)nn4)CC3)cc2)c(-c2cn(C)c(=O)c3[nH]ccc23)c1 [I-50]	50 to 500 nM	50 to 500 nM	–	< 500 nM	< 500 nM	–	< 500 nM	< 500 nM
CCS(=O)(=O)c1ccc(Oc2ccc(COC3CCN(c4ccc(C(=O)N[C@H]5CC[C@H](Oc6ccc(C#N)c(Cl)c6)CC5)nn4)CC3)c(F)c2F)c(-c2cn(C)c(=O)c3[nH]ccc23)c1 [I-53]	> 2500 nM	> 2500 nM	–	< 500 nM	< 500 nM	–	< 500 nM	< 500 nM
CCS(=O)(=O)c1ccc(Oc2ccc(CCC3CCN(c4ccc(C(=O)N[C@H]5CC[C@H](Oc6ccc(C#N)c(Cl)c6)CC5)nn4)CC3)c(F)c2)c(-c2cn(C)c(=O)c3[nH]ccc23)c1 [I-54]	> 2500 nM	> 2500 nM	–	< 500 nM	< 500 nM	–	< 500 nM	< 500 nM
CCS(=O)(=O)c1ccc(Oc2cccc(CCN3CCN(c4ccc(C(=O)N[C@H]5CC[C@H](Oc6ccc(C#N)c(Cl)c6)CC5)nn4)CC3)c2F)c(-c2cn(C)c(=O)c3[nH]ccc23)c1 [I-55]	< 50 nM	< 50 nM	< 500 nM	–	–	< 500 nM	< 500 nM	< 500 nM
CCS(=O)(=O)c1ccc(Oc2ccc(CN3CC4(C3)CN(c3ccc(C(=O)N[C@H]5CC[C@H](Oc6ccc(C#N)c(Cl)c6)CC5)nn3)C4)cc2)c(-c2cn(C)c(=O)c3[nH]ccc23)c1 [I-56]	< 50 nM	< 50 nM	< 500 nM	–	–	< 500 nM	< 500 nM	< 500 nM
CCS(=O)(=O)c1ccc(Oc2ccc(CN3CC4(CCN(c5ccc(C(=O)N[C@H]6CC[C@H](Oc7ccc(C#N)c(Cl)c7)CC6)nn5)CC4)C3)cc2)c(-c2cn(C)c(=O)c3[nH]ccc23)c1 [I-57]	< 50 nM	< 50 nM	< 500 nM	–	–	< 500 nM	< 500 nM	< 500 nM
CCS(=O)(=O)c1ccc(Oc2ccc(N3CC4(CCN(c5ccc(C(=O)NC6CCC(Oc7ccc(C#N)c(Cl)c7)CC6)nn5)CC4)C3)cc2)c(-c2cn(C)c(=O)c3[nH]ccc23)c1 (centres unmarked) [I-90, N-[4-(3-chloro-4-cyano-phenoxy)cyclohexyl]-6-[2-[4-[4-ethylsulfonyl-2-(6-methyl-7-oxo-1H-pyrrolo[2,3-c]pyridin-4-yl)phenoxy]phenyl]-2,7-diazaspiro[3.5]nonan-7-yl]pyridazine-3-carboxamide]	50 to 500 nM	50 to 500 nM	< 500 nM	–	–	< 500 nM	< 500 nM	< 500 nM
Cn1cc(-c2cc(C(C)(C)O)ccc2Oc2cc(F)c(CCOC3CCN(c4ccc(C(=O)N[C@H]5CC[C@H](Oc6ccc(C#N)c(Cl)c6)CC5)nn4)CC3)c(F)c2)c2cc[nH]c2c1=O [I-110]	> 2500 nM	> 2500 nM	< 500 nM	–	–	1500 to 3000 nM	< 500 nM	500 to 1500 nM
Cn1cc(-c2cc(C(C)(C)O)ccc2Oc2ccc(CCC3CCN(c4ccc(C(=O)N[C@H]5CC[C@H](Oc6ccc(C#N)c(Cl)c6)CC5)nn4)CC3)cc2F)c2cc[nH]c2c1=O [I-111]	> 2500 nM	> 2500 nM	–	< 500 nM	< 500 nM	–	< 500 nM	> 3000 nM
CCS(=O)(=O)Cc1ccc(Oc2ccc(CCC3CCN(c4ccc(C(=O)NC5CCC(Oc6ccc(C#N)c(Cl)c6)CC5)nn4)CC3)cc2)c(-c2cn(C)c(=O)c3[nH]ccc23)c1 (centres unmarked) [I-154, N-[4-(3-chloro-4-cyano-phenoxy)cyclohexyl]-6-[4-[2-[4-[4-(ethylsulfonylmethyl)-2-(6-methyl-7-oxo-1H-pyrrolo[2,3-c]pyridin-4-yl)phenoxy]phenyl]ethyl]-1-piperidyl]pyridazine-3-carboxamide]	500 to 2500 nM	500 to 2500 nM	–	< 500 nM	–	–	< 500 nM	< 500 nM
Cn1cc(-c2cc(NC(=O)CCC3CCN(c4ccc(C(=O)N[C@H]5CC[C@H](Oc6ccc(C#N)c(Cl)c6)CC5)nn4)CC3)ccc2Oc2ccc(F)cc2F)c2cc[nH]c2c1=O [I-213]	500 to 2500 nM	500 to 2500 nM	–	1500 to 3000 nM	–	–	< 500 nM	500 to 1500 nM

Now from value to molecule, other results behind:

Kd [1]	Kd [2]	GI50 ([5]; Homo sapiens)	GI50 [5]	GI50 [6]	GI50 ([6]; Homo sapiens)	SMILES	GI50 [3]	GI50 [4]
< 50 nM	< 50 nM	< 500 nM	–	–	–	CCS(=O)(=O)Nc1ccc(Oc2cccc(OCCOCCOCCOCCOCCOC3CCN(c4ccc(C(=O)N[C@H]5CC[C@H](Oc6ccc(C#N)c(Cl)c6)CC5)nn4)CC3)c2)c(-c2cn(C)c(=O)c3[nH]ccc23)c1 [I-3, N-[4-(3-chloro-4-cyano-phenoxy)cyclohexyl]-6-[4-[2-[2-[2-[2-[2-[3-[4-(ethylsulfonylamino)-2-(6-methyl-7-oxo-1H-pyrrolo[2,3-c]pyridin-4-yl)phenoxy]phenoxy]ethoxy]ethoxy]ethoxy]ethoxy]ethoxy]-1-piperidyl]pyridazine-3-carboxamide]	< 500 nM	> 3000 nM
500 to 2500 nM	500 to 2500 nM	< 500 nM	–	–	–	CCS(=O)(=O)c1ccc(Oc2cccc(OCCCC3CCN(c4ccc(C(=O)N[C@H]5CC[C@H](Oc6ccc(C#N)c(Cl)c6)CC5)nn4)CC3)c2F)c(-c2cn(C)c(=O)c3[nH]ccc23)c1 [I-15]	< 500 nM	< 500 nM
500 to 2500 nM	500 to 2500 nM	< 500 nM	–	–	–	CCS(=O)(=O)Cc1ccc(Oc2cccc(OCCCC3CCN(c4ccc(C(=O)N[C@H]5CC[C@H](Oc6ccc(C#N)c(Cl)c6)CC5)nn4)CC3)c2F)c(-c2cn(C)c(=O)c3[nH]ccc23)c1 [I-20]	< 500 nM	< 500 nM
50 to 500 nM	50 to 500 nM	< 500 nM	–	–	–	CCS(=O)(=O)Cc1ccc(Oc2cccc(CCCOC3CCN(c4ccc(C(=O)N[C@H]5CC[C@H](Oc6ccc(C#N)c(Cl)c6)CC5)nn4)CC3)c2F)c(-c2cn(C)c(=O)c3[nH]ccc23)c1 [I-29]	< 500 nM	< 500 nM
< 50 nM	< 50 nM	< 500 nM	–	–	–	CCS(=O)(=O)Nc1ccc(Oc2ccc(CCOC3CCN(c4ccc(C(=O)N[C@H]5CC[C@H](Oc6ccc(C#N)c(Cl)c6)CC5)nn4)CC3)cc2)c(-c2cn(C)c(=O)c3[nH]ccc23)c1 [I-35]	< 500 nM	< 500 nM
500 to 2500 nM	500 to 2500 nM	–	< 500 nM	< 500 nM	–	CCS(=O)(=O)Nc1ccc(Oc2ccc(CCC3CCN(c4ccc(C(=O)N[C@H]5CC[C@H](Oc6ccc(C#N)c(Cl)c6)CC5)nn4)CC3)cc2)c(-c2cn(C)c(=O)c3[nH]ccc23)c1 [I-38]	< 500 nM	< 500 nM
500 to 2500 nM	500 to 2500 nM	–	< 500 nM	< 500 nM	–	CCS(=O)(=O)c1ccc(Oc2cccc(OCCC3CCN(c4ccc(C(=O)N[C@H]5CC[C@H](Oc6ccc(C#N)c(Cl)c6)CC5)nn4)CC3)c2F)c(-c2cn(C)c(=O)c3[nH]ccc23)c1 [I-42]	< 500 nM	< 500 nM
